Results from publication PMC4877957 (BMC Microbiology, 2016).

How the values were obtained:
RoxAXsp = target: T1, RoxAXsp (Xanthomonas sp. 35Y, UniProt Q7X0P3); experiment: HPLC of polyisoprene cleavage products; format: biochemical; conditions: poly(cis-1,4-isoprene) latex, oxygen; 23 °C
T1 construct: gene roxA; purified as described previously; c-type dihaem

LcpRr = target: T2, LcpRr (Rhodococcus rhodochrous, UniProt A0A165QBG6); experiment: HPLC product assay (C35 peak), polyisoprene latex; conditions: read-out: % inhibition at 1 mM
T2 sequence (A0A165QBG6 31-408): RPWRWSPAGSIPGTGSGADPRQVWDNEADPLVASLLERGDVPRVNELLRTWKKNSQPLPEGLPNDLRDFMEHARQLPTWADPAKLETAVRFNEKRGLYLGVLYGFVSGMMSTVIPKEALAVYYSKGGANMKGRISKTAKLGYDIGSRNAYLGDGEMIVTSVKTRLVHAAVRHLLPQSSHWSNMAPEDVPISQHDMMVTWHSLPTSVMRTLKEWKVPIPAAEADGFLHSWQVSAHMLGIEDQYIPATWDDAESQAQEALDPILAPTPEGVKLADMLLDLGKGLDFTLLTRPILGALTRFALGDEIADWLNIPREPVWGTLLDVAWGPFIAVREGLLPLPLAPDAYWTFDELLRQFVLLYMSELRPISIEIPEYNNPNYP

T1 sequence (Q7X0P3 entry or part of it): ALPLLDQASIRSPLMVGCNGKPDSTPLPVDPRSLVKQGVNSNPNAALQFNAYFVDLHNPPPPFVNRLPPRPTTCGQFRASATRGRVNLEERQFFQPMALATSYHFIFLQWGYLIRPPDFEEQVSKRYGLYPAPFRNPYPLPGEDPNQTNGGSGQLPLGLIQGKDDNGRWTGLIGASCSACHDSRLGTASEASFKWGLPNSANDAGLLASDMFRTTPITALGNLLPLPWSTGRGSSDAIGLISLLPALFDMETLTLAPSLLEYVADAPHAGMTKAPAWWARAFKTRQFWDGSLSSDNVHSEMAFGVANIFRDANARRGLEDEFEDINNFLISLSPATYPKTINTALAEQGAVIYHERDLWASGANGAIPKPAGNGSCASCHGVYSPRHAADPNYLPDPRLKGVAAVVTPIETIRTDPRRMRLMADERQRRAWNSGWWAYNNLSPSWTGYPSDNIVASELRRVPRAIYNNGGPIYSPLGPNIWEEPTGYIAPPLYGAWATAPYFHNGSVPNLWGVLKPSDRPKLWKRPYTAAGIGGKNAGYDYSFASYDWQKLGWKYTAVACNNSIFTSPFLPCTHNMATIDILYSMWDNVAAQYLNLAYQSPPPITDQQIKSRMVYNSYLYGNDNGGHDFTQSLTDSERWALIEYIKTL

`CC(=O)CCC=C(C)CCC=C(C)CCC=O` [ODTD, 12-oxo-4,8-dimethyl-trideca-4,8-diene-1-al] was tested, and the “HPLC of polyisoprene cleavage products” value (RoxAXsp) was “ODTD was the main cleavage product of RoxAXsp”.
For `CCN(CC)C(=S)S` [diethyl dithiocarbamate], the inhibition at 1000 µM (LcpRr) was 82%.
